The source of these data is patent publication US7517874B2 (priority 2007, dated 2009).

Where two headings read alike, the source gives them in different places. Some results are limits rather than exact numbers.

Assay [1] concerns the target human CB1 receptor (hCB1) (Homo sapiens, UniProt P21554). Put plainly: cell-based. The format is cell-based. An outline of the steps:
(§1)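 First, cells in IBMX-containing HEPES-buffered HBSS are raised to elevated cAMP with 2-8 μM NKH-477 for 30 min. Data are normalised to the forskolin and forskolin + 1 μM CP55,940 controls.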

A further assay addresses T1, rat CB2 receptor (rCB2) (Rattus norvegicus, UniProt Q9QZN9).
T1 sequence (Q9QZN9 1-360): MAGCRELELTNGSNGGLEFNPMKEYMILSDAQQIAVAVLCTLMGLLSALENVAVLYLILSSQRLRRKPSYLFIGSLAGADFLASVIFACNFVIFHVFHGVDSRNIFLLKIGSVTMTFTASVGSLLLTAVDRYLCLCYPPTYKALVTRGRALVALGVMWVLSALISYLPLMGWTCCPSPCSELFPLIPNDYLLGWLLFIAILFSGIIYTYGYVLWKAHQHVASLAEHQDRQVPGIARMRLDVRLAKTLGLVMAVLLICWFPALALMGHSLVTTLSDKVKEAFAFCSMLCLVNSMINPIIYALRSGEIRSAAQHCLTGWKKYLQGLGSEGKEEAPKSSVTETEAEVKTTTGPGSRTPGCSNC
Put plainly: cell-based. Format: cell-based. The note with it: for +/− RCB2: agonist or inverse agonist at rCB2. In short, it runs like this:
as §1

The mark [2] stands for this setting: groups >100 nM-10 μM and >10 μM, cAMP, CHO-K1 hCB1, read-out: EC50 HCB1.

Chain of human CB1 receptor (hCB1) (P21554 whole entry): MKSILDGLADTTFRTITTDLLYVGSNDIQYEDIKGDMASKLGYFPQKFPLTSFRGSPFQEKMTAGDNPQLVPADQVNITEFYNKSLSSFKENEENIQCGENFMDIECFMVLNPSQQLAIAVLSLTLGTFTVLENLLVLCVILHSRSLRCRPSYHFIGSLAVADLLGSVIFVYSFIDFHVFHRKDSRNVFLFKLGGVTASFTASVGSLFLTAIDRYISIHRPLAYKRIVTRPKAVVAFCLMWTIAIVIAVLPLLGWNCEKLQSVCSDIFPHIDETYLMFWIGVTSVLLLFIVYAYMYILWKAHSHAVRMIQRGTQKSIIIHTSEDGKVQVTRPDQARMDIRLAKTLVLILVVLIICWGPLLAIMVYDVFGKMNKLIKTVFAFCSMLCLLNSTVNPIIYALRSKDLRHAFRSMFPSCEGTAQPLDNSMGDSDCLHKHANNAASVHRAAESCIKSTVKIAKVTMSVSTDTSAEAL

One may read the EC50 as the concentration at which the effect is half-maximal. With `CNC(=O)[C@@H](NC(=O)c1nc(/C=C/CN2CCCC2)n2c1CN(C)CC2)C(C)(C)C` [Compound 288, (S,E)-N-(3,3-dimethyl-1-(methylamino)-1-oxobutan-2-yl)-7-methyl-3-(3-(pyrrolidin-1-yl)prop-1-enyl)-5,6,7,8-tetrahydroimidazo[1,5-a]pyrazine-1-carboxamide], the EC50 in assay [1] was more than 10000 nM. Further, on rat CB2 receptor (rCB2), the “+/− RCB2” value is recorded as “−”.
The matching figures for `CNC(=O)[C@@H](NC(=O)c1nc(C(=O)c2ccccc2)n2c1CN(C)CC2)C(C)(C)C` [Compound 289, (S)-3-benzoyl-N-(3,3-dimethyl-1-(methylamino)-1-oxobutan-2-yl)-7-methyl-5,6,7,8-tetrahydroimidazo[1,5-a]pyrazine-1-carboxamide]: more than 10000 nM and “−”.
The matching figures for `CNC(=O)[C@@H](NC(=O)c1nc(C(=O)Nc2ccccc2)n2c1CN(C)CC2)C(C)(C)C` [Compound 290, (S)-N1-(3,3-dimethyl-1-(methylamino)-1-oxobutan-2-yl)-7-methyl-N3-phenyl-5,6,7,8-tetrahydroimidazo[1,5-a]pyrazine-1,3-dicarboxamide]: more than 10000 nM and “−”.
Taken in the same sequence, the figures for `CC(C)(C)CC(=O)c1nc(-c2ccccc2)n2c1CNCC2` [Compound 291, 3,3-dimethyl-1-(3-phenyl-5,6,7,8-tetrahydroimidazo[1,5-a]pyrazin-1-yl)butan-1-one 2,2,2-trifluoroacetate] were more than 10000 nM and “−”.
Take `CN1CCn2c(-c3ccccc3)nc(C(=O)CC(C)(C)C)c2C1` [Compound 292, 3,3-dimethyl-1-(7-methyl-3-phenyl-5,6,7,8-tetrahydroimidazo[1,5-a]pyrazin-1-yl)butan-1-one]: in assay [1] (setting [2]), the EC50 is more than 10000 nM. Further, the “+/− RCB2” value at rat CB2 receptor (rCB2) is “−”.
As for `CC(C)=CC(=O)c1nc(-c2ccccc2)n2c1CN(C)CC2` [Compound 293, 3-methyl-1-(7-methyl-3-phenyl-5,6,7,8-tetrahydroimidazo[1,5-a]pyrazin-1-yl)but-2-en-1-one], the EC50 in assay [1] (setting [2]) is more than 10000 nM. Besides, the “+/− RCB2” value at rat CB2 receptor (rCB2) is given as “−”.
Taken in the same sequence, the figures for `CN1CCn2c(-c3ccccc3)nc(C(=O)CCCc3ccccc3)c2C1` [Compound 294, 1-(7-methyl-3-phenyl-5,6,7,8-tetrahydroimidazo[1,5-a]pyrazin-1-yl)-4-phenylbutan-1-one] were more than 10000 nM and “−”.
As for `CNC(=O)[C@@H](NC(=O)c1nc(C(O)c2ccccc2)n2c1CN(C)CC2)C(C)(C)C` (stereo partly drawn) [Compound 295, N-((S)-3,3-dimethyl-1-(methylamino)-1-oxobutan-2-yl)-3-(hydroxy(phenyl)methyl)-7-methyl-5,6,7,8-tetrahydroimidazo[1,5-a]pyrazine-1-carboxamide], the EC50 in assay [1] is more than 10000 nM; on rat CB2 receptor (rCB2) it was more than 10 µM.
In assay [1], `CNC(=O)[C@@H](NC(=O)c1nc(C(O)C2CC2)n2c1CN(C)CC2)C(C)(C)C` (stereo partly drawn) [Compound 296, 3-(cyclopropyl(hydroxy)methyl)-N-((S)-3,3-dimethyl-1-(methylamino)-1-oxobutan-2-yl)-7-methyl-5,6,7,8-tetrahydroimidazo[1,5-a]pyrazine-1-carboxamide] had an EC50 of more than 10000 nM. Besides, the “+/− RCB2” value on rat CB2 receptor (rCB2) is recorded as “+”.
Taken in the same sequence, the figures for `CNC(=O)[C@@H](NC(=O)c1nc(-c2nccs2)n2c1CN(C)CC2)C(C)(C)C` [Compound 297, (S)-N-(3,3-dimethyl-1-(methylamino)-1-oxobutan-2-yl)-7-methyl-3-(thiazol-2-yl)-5,6,7,8-tetrahydroimidazo[1,5-a]pyrazine-1-carboxamide] were more than 10000 nM and “+”.
As for `CNC(=O)[C@@H](NC(=O)c1nc(-c2ccccc2)n2c1CN(c1ncccn1)CC2)C(C)(C)C` [Compound 298, N-(3,3-dimethyl-1-(methylamino)-1-oxobutan-2-yl)-3-phenyl-7-(pyrimidin-2-yl)-5,6,7,8-tetrahydroimidazo[1,5-a]pyrazine-1-carboxamide], the “+/− HCB1” value in assay [1] (agonist or inverse agonist at hCB1) is “+”. The “+/− RCB2” value on rat CB2 receptor (rCB2) was “+”.
